The data set deals with T1, CYP2A6 (Homo sapiens, UniProt P11509).
T1 construct: Pooled human liver microsomes were purchased from BD Gentest; tissue BD Gentest; host or cells: pooled human liver microsomes
T1 sequence (P11509 1-494): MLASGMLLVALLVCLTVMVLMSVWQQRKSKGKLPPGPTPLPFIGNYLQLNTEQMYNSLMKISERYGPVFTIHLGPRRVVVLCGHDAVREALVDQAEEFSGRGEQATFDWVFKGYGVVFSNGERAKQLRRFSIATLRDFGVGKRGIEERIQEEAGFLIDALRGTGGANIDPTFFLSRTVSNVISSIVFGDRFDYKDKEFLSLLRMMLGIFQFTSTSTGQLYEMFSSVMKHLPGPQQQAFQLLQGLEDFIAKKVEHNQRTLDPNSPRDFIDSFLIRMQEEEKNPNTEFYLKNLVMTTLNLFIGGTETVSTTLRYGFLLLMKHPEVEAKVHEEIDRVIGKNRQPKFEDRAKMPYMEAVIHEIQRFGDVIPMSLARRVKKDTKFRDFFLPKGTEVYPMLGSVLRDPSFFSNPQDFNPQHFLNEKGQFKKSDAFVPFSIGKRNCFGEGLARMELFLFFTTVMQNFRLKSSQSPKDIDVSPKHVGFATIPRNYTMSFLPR
Kind of data set: CYP inhibition assay in human liver microsomes (LC-MS/MS cocktail), coumarin to 7-OH-coumarin. The data set is classed as in vitro ADME. On the procedure:
For the experimental method, the reference method was used. Briefly, incubation mixtures were composed of 0.5 mg/mL human liver microsomes; varying concentrations of CS in DW (0.1, 0.3, 1, 3, 10, 30, 100, and 200 µM) or MSM in DW (0.1, 0.3, 1, 3, 10, 30, 100, 300, and 1000 µM) or GCS in DMSO (0.1, 0.3, 1, 3, 10, 30, 100, 300, and 1000 µM); a substrate mixture in DMSO (40 µM phenacetin for CYP1A2; 2.5 µM coumarin for CYP2A6; 80 µM bupropion for CYP2B6; 10 µM diclofenac for CYP2C9; 80 µM [±]-mephenytoin for CYP2C19; 5 µM dextromethorphan for CYP2D6; 2.5 µM midazolam and 30 µM testosterone for CYP3A4); and an NADPH generating system (NGS; 0.1 M glucose-6-phosphate, 10 mg/mL β-NADP^+, and 1 U/mL glucose-6-phosphate dehydrogenase) in a total volume of 200 µL potassium phosphate buffer (0.1 M, pH 7.4). The reaction mixture, excluding NGS, underwent pre-incubation at 37 °C for 5 min, followed by further incubation with NGS for 30 min in a water bath. Well-established selective CYP inhibitors were employed as positive controls (40 µM ketoconazole for CYP3A4, 50 µM furafyllin for CYP1A2, 10 µM quinidine for CYP2D6, 125 µM ticlopidine for CYP2C19 and CYP2B6, 10 µM 8-methoxsalen for CYP2A6, and 10 µM sulfaphenazole for CYP2C9). Post incubation, the reaction was halted by adding 50 µL ice-cold 1% formic acid acetonitrile. After centrifugation at 13,200 rpm for 5 min, the supernatant was collected from the sample and subjected to analysis via an LC-MS/MS system. All experiments were performed in triplicate.
For the experimental method, the reference method was used. The LC-MS/MS system utilized in this study consisted of an Agilent 1260 binary pump HPLC system coupled with the Agilent 6460 Triple Quadrupole mass spectrometer (Agilent Technologies, Santa Clara, CA, USA), featuring an electrospray ionization source. Chromatographic separation was achieved using a Fortis C8 column (2.1 × 100 mm, 5.0 µm; Fortis Technologies Ltd., Neston, UK). The HPLC mobile phases comprised (A) 0.1% formic acid and (B) 0.1% formic acid in 90% acetonitrile. A gradient elution method was employed with an initial solvent B concentration of 15% and a flow rate of 0.25 mL/min. […] The total run time was 11.0 min, and the injection volume was 5 µL. Mass detection was conducted in the positive ion mode using multiple reaction monitoring (MRM). Specific MRM transitions for each analyte are detailed in Table S4.
A general note: Liver microsomes are vesicles of endoplasmic reticulum, rich in cytochrome P450 enzymes.

Experimental findings from article PMC10745882, “Investigation of Drug-Interaction Potential for Arthritis Dietary Supplements: Chondroitin Sulfate, Glucosamine, and Methylsulfonylmethane” (Molecules, 2023) are described below.

On to `N[C@H]1C(O)O[C@H](CO)[C@@H](O)[C@@H]1O` (some centres unmarked) [GCS, glucosamine], for which the “Remaining Activities (% of Control, n = 3)” value runs as follows: (test substance 0.3 μM) 107.6 ± 5.2 % of Control; (test substance 1 μM) 105.3 ± 0.4 % of Control; (test substance 3 μM) 106.2 ± 2.3 % of Control; (test substance 10 μM) 101.5 ± 1.4 % of Control; (test substance 30 μM) 102.1 ± 2.5 % of Control; (test substance 100 μM) 103.4 ± 2.7 % of Control. The “Remaining Activities (% of Control, n = 3)” value is 97.9 ± 0.4 % of Control (test substance 300 μM) and 94.1 ± 7.3 % of Control (test substance 1000 μM).
